Measurements: PubChem BioAssay (NCI)
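Protocol summary: plate cells (96-well), add compound at 5 concentrations, incubate 48 h, interpolate endpoints linearly. TGI denotes the concentration required for complete inhibition of growth.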

Key:
Experiment in all cases: NCI-60 cell line screen, 48 h
786-0 renal = system: 786-0 renal
A498 renal = system: A498 renal
A549 NSCLC = system: A549 NSCLC
ACHN renal = system: ACHN renal
BT-549 breast = system: BT-549 breast
CAKI-1 renal = system: CAKI-1 renal
CCRF-CEM leukemia = system: CCRF-CEM leukemia
COLO 205 colon = system: COLO 205 colon
DU-145 prostate = system: DU-145 prostate
EKVX NSCLC = system: EKVX NSCLC
HCC-2998 colon = system: HCC-2998 colon
HCT-116 colon = system: HCT-116 colon
HCT-15 colon = system: HCT-15 colon
HL-60(TB) leukemia = system: HL-60(TB) leukemia
HOP-62 NSCLC = system: HOP-62 NSCLC
HOP-92 NSCLC = system: HOP-92 NSCLC
HS 578T breast = system: HS 578T breast
HT29 colon = system: HT29 colon
IGROV1 ovarian = system: IGROV1 ovarian
K-562 leukemia = system: K-562 leukemia
KM12 colon = system: KM12 colon
M14 melanoma = system: M14 melanoma
MALME-3M melanoma = system: MALME-3M melanoma
MCF7 breast = system: MCF7 breast
MDA-MB-231 breast = system: MDA-MB-231 breast
MDA-MB-435 = system: MDA-MB-435
MDA-N = system: MDA-N
NCI-H226 lung = system: NCI-H226 lung
NCI-H23 lung = system: NCI-H23 lung
NCI-H460 lung = system: NCI-H460 lung
NCI-H522 lung = system: NCI-H522 lung
NCI/ADR-RES ovarian = system: NCI/ADR-RES ovarian
OVCAR-3 ovarian = system: OVCAR-3 ovarian
OVCAR-4 ovarian = system: OVCAR-4 ovarian
OVCAR-5 ovarian = system: OVCAR-5 ovarian
PC-3 prostate = system: PC-3 prostate
RPMI-8226 leukemia = system: RPMI-8226 leukemia
RXF 393 renal = system: RXF 393 renal
SF-268 CNS = system: SF-268 CNS
SF-295 CNS = system: SF-295 CNS
SF-539 CNS = system: SF-539 CNS
SK-MEL-2 melanoma = system: SK-MEL-2 melanoma
SK-MEL-28 melanoma = system: SK-MEL-28 melanoma
SK-MEL-5 melanoma = system: SK-MEL-5 melanoma
SK-OV-3 ovarian = system: SK-OV-3 ovarian
SN12C renal = system: SN12C renal
SNB-19 CNS = system: SNB-19 CNS
SNB-75 CNS = system: SNB-75 CNS
SR leukemia = system: SR leukemia
SW-620 colon = system: SW-620 colon
T-47D breast = system: T-47D breast
TK-10 renal = system: TK-10 renal
U251 CNS = system: U251 CNS
UACC-257 melanoma = system: UACC-257 melanoma
UACC-62 melanoma = system: UACC-62 melanoma
UO-31 renal = system: UO-31 renal
LOX IMVI melanoma = system: LOX IMVI melanoma
MOLT-4 leukemia = system: MOLT-4 leukemia
OVCAR-8 ovarian = system: OVCAR-8 ovarian

For `CSc1ccc2c(c1)c(CCN)c(C)n2Cc1ccccc1Cl`, which TGI (786-0 renal) is on record?
Its TGI is 3.42 µM.

And the TGI (A498 renal)?
Its TGI is 3.1 µM.

And the TGI (A549 NSCLC)?
The TGI was 3.18 µM.

What about the TGI (ACHN renal) of the same compound?
The TGI was 3.06 µM.

And the TGI (BT-549 breast)?
Its TGI is 33.5 µM.

And the TGI (CAKI-1 renal)?
The TGI was 4.1 µM.

And the TGI (CCRF-CEM leukemia)?
Its TGI is 3.89 µM.

What about the TGI (COLO 205 colon) of the same compound?
The TGI was 2.99 µM.

And the TGI (DU-145 prostate)?
The TGI was 3.04 µM.

What about the TGI (EKVX NSCLC) of the same compound?
Its TGI is 3.12 µM.

And the TGI (HCC-2998 colon)?
The TGI was 2.04 µM.

And the TGI (HCT-116 colon)?
Its TGI is 3.07 µM.

And the TGI (HCT-15 colon)?
Its TGI is 4.45 µM.

And the TGI (HL-60(TB) leukemia)?
The TGI was 3.2 µM.

And the TGI (HOP-62 NSCLC)?
Its TGI is 2.62 µM.

What about the TGI (HOP-92 NSCLC) of the same compound?
The TGI was 2.75 µM.

What about the TGI (HS 578T breast) of the same compound?
Its TGI is 3.67 µM.

What about the TGI (HT29 colon) of the same compound?
The TGI was 3.09 µM.

And the TGI (IGROV1 ovarian)?
The TGI was 3.25 µM.

What about the TGI (K-562 leukemia) of the same compound?
Its TGI is 2.83 µM.

What about the TGI (KM12 colon) of the same compound?
The TGI was 3.32 µM.

What about the TGI (M14 melanoma) of the same compound?
Its TGI is 3.32 µM.

What about the TGI (MALME-3M melanoma) of the same compound?
Its TGI is 3.34 µM.

What about the TGI (MCF7 breast) of the same compound?
Its TGI is 3.11 µM.

And the TGI (MDA-MB-231 breast)?
Its TGI is 3.66 µM.

And the TGI (MDA-MB-435)?
Its TGI is 3.08 µM.

What about the TGI (MDA-N) of the same compound?
The TGI was 3.11 µM.

And the TGI (NCI-H226 lung)?
The TGI was 4.1 µM.

And the TGI (NCI-H23 lung)?
Its TGI is 3.86 µM.

What about the TGI (NCI-H460 lung) of the same compound?
The TGI was 3.02 µM.

What about the TGI (NCI-H522 lung) of the same compound?
The TGI was 3 µM.

And the TGI (NCI/ADR-RES ovarian)?
The TGI was 4.77 µM.

And the TGI (OVCAR-3 ovarian)?
Its TGI is 3.3 µM.

What about the TGI (OVCAR-4 ovarian) of the same compound?
Its TGI is 3.29 µM.

What about the TGI (OVCAR-5 ovarian) of the same compound?
The TGI was 3.78 µM.

What about the TGI (PC-3 prostate) of the same compound?
Its TGI is 2.86 µM.

What about the TGI (RPMI-8226 leukemia) of the same compound?
The TGI was 3.26 µM.

And the TGI (RXF 393 renal)?
The TGI was 2.83 µM.

And the TGI (SF-268 CNS)?
The TGI was 3.4 µM.

And the TGI (SF-295 CNS)?
The TGI was 3.26 µM.

What about the TGI (SF-539 CNS) of the same compound?
The TGI was 2.26 µM.

What about the TGI (SK-MEL-2 melanoma) of the same compound?
The TGI was 3.26 µM.

What about the TGI (SK-MEL-28 melanoma) of the same compound?
Its TGI is 3.22 µM.

And the TGI (SK-MEL-5 melanoma)?
The TGI was 3.11 µM.

And the TGI (SK-OV-3 ovarian)?
The TGI was 4.28 µM.

And the TGI (SN12C renal)?
Its TGI is 3.06 µM.

What about the TGI (SNB-19 CNS) of the same compound?
The TGI was 3.32 µM.

What about the TGI (SNB-75 CNS) of the same compound?
Its TGI is 3.04 µM.

And the TGI (SR leukemia)?
Its TGI is > 100 µM.

What about the TGI (SW-620 colon) of the same compound?
The TGI was 3.89 µM.

What about the TGI (T-47D breast) of the same compound?
The TGI was 3.09 µM.

What about the TGI (TK-10 renal) of the same compound?
Its TGI is 3.15 µM.

And the TGI (U251 CNS)?
Its TGI is 3.06 µM.

What about the TGI (UACC-257 melanoma) of the same compound?
The TGI was 3.29 µM.

What about the TGI (UACC-62 melanoma) of the same compound?
Its TGI is 3.05 µM.

What about the TGI (UO-31 renal) of the same compound?
The TGI was 2.96 µM.

`Cn1cc2c3ccccc3nc-2c2ccccc21` was tested. Which TGI (786-0 renal) did it give?
The TGI was 11.1 µM.

What about the TGI (A498 renal) of the same compound?
Its TGI is 3.27 µM.

And the TGI (A549 NSCLC)?
Its TGI is 5.65 µM.

And the TGI (ACHN renal)?
The TGI was 5.81 µM.

And the TGI (BT-549 breast)?
The TGI was 14.7 µM.

And the TGI (CAKI-1 renal)?
The TGI was 7.79 µM.

And the TGI (CCRF-CEM leukemia)?
The TGI was 5.99 µM.

What about the TGI (COLO 205 colon) of the same compound?
Its TGI is 3.07 µM.

What about the TGI (DU-145 prostate) of the same compound?
Its TGI is 5.76 µM.

What about the TGI (HCC-2998 colon) of the same compound?
The TGI was 3.04 µM.

What about the TGI (HCT-116 colon) of the same compound?
The TGI was 3.2 µM.

And the TGI (HCT-15 colon)?
The TGI was 4.94 µM.

What about the TGI (HL-60(TB) leukemia) of the same compound?
The TGI was 4.48 µM.

What about the TGI (HOP-62 NSCLC) of the same compound?
Its TGI is 4.16 µM.

What about the TGI (HOP-92 NSCLC) of the same compound?
Its TGI is 4.3 µM.

What about the TGI (HS 578T breast) of the same compound?
Its TGI is 5.3 µM.

What about the TGI (HT29 colon) of the same compound?
The TGI was 5.35 µM.

What about the TGI (K-562 leukemia) of the same compound?
Its TGI is 9.65 µM.

What about the TGI (KM12 colon) of the same compound?
The TGI was 6.78 µM.

And the TGI (LOX IMVI melanoma)?
Its TGI is 4.36 µM.

What about the TGI (M14 melanoma) of the same compound?
Its TGI is 4.4 µM.

What about the TGI (MALME-3M melanoma) of the same compound?
The TGI was 5.78 µM.

And the TGI (MCF7 breast)?
Its TGI is 10 µM.

And the TGI (MDA-MB-231 breast)?
Its TGI is 5.73 µM.

And the TGI (MDA-MB-435)?
Its TGI is 6.33 µM.

And the TGI (MDA-N)?
The TGI was 5.95 µM.

What about the TGI (MOLT-4 leukemia) of the same compound?
The TGI was 2.74 µM.

And the TGI (NCI-H23 lung)?
Its TGI is 3.15 µM.

And the TGI (NCI-H460 lung)?
Its TGI is 4.34 µM.

What about the TGI (NCI-H522 lung) of the same compound?
Its TGI is 3.18 µM.

What about the TGI (NCI/ADR-RES ovarian) of the same compound?
Its TGI is 4.24 µM.

What about the TGI (OVCAR-3 ovarian) of the same compound?
The TGI was 6.88 µM.

What about the TGI (OVCAR-4 ovarian) of the same compound?
Its TGI is 5.25 µM.

What about the TGI (OVCAR-5 ovarian) of the same compound?
The TGI was 6.84 µM.

And the TGI (OVCAR-8 ovarian)?
The TGI was 3.42 µM.

What about the TGI (PC-3 prostate) of the same compound?
Its TGI is 5.78 µM.

What about the TGI (RPMI-8226 leukemia) of the same compound?
The TGI was 3.94 µM.

What about the TGI (SF-268 CNS) of the same compound?
The TGI was 6.86 µM.

And the TGI (SF-295 CNS)?
Its TGI is 10.4 µM.

What about the TGI (SF-539 CNS) of the same compound?
Its TGI is 3.66 µM.

What about the TGI (SK-MEL-2 melanoma) of the same compound?
The TGI was 3.52 µM.

And the TGI (SK-MEL-28 melanoma)?
Its TGI is 6.43 µM.

What about the TGI (SK-MEL-5 melanoma) of the same compound?
The TGI was 3.64 µM.

And the TGI (SK-OV-3 ovarian)?
The TGI was 9.3 µM.

What about the TGI (SN12C renal) of the same compound?
Its TGI is 4.89 µM.

And the TGI (SNB-19 CNS)?
The TGI was 10.6 µM.

What about the TGI (SNB-75 CNS) of the same compound?
Its TGI is 6.6 µM.

And the TGI (SR leukemia)?
Its TGI is 2.1 µM.

What about the TGI (SW-620 colon) of the same compound?
The TGI was 3.89 µM.

And the TGI (T-47D breast)?
Its TGI is 5.87 µM.

And the TGI (TK-10 renal)?
The TGI was 20.6 µM.

What about the TGI (U251 CNS) of the same compound?
The TGI was 6.51 µM.

What about the TGI (UACC-257 melanoma) of the same compound?
Its TGI is 5.85 µM.

And the TGI (UACC-62 melanoma)?
Its TGI is 3.15 µM.

And the TGI (UO-31 renal)?
The TGI was 2.92 µM.
